Experimental data taken from article PMC10892288, “Early Stage Preclinical Formulation Strategies to Alter the Pharmacokinetic Profile of Two Small Molecule Therapeutics” (Pharmaceuticals, 2024).

Key:
[1] = Mouse IV infusion of G6893 by iPRECIO pump; format: in vivo, female C57BL-6 mice; settings: 0.5 mg/kg/h, 2.5 mg/mL in 100% PEG400, over 96 h
From the text: This is often a concern for molecules in early drug discovery stages. Various formulation and delivery strategies have been devised to modify the systemic PK profiles of drug molecules, encompassing nanoparticles, microparticles, lipid and polymer conjugation, implanted infusion pump device technologies, and subcutaneous depots. Here, we examined two strategies aimed at maintaining the drug concentration at a designed target concentration for the maximum duration potentially needed for proof of concept studies. The initial approach involved using an implantable device, the iPRECIO pump that allows for a controlled and sustained infusion, as opposed to a typical bolus IV injection. The infusion pump strategies can be a promising tool to achieve the desired delivery profile of a compound, given the solubility requirements based on the intended target release and PK profile. […]
All plasma and cell media concentrations of G7883 and G6893 were determined using liquid chromatography–tandem mass spectrometry after protein precipitation with acetonitrile and injection of the supernatant onto the column (Waters ACQUITY UPLC BEH C18 1.7 μm, 2.1 × 50 mm for G7883 and G6893). […] The lower limit of quantitation of the assay was 5.1 ng/mL, and the dilution quality control concentration was set at 10 ng/mL with acceptance criteria for accuracy and precision of 25%.

[2] = pKa (physiochemical properties); format: physicochemical
From the text: Table 1 Physiochemical properties of […] and […]. | column: […]; […]

HPK1 = HPK1 (Homo sapiens, UniProt Q92918); assay: Potency (IC50) of HPK1 inhibitor
[3] = Vehicle screening for solution or suspension formulations; format: physicochemical; settings: 100% PEG400
Procedure: Based on the target concentration, G7883 was screened at 3.3 mg/mL in three different vehicles of 100%PEG400, 10%DMSO in 90%PEG400, and 20%DMSO in 80%PEG400 to generate a stable solution. […] A total of 50% DMSO is the maximum amount compatible with the iPRECIO pump system. Based on the target concentration, G6893 was screened at 5 mg/mL in four different vehicles as follows: 100% PEG400, 20% DMSO in 80% PEG400, 20% DMA and 40% PG in 40% PEG400, and 10% EtOH and 20% HPbCD in 70% water at pH 4.5. G6893 achieved a solution at the target concentration of 5 mg/mL in 100% PEG400 and maintained a solution without precipitation after dilution in PBS buffer.
G7883 was screened in different oil vehicles including corn, coconut, paraffin, soybean, and sunflower oil.

[4] = Water solubility (physiochemical properties); format: physicochemical
[5] = Log P (physiochemical properties); format: physicochemical
[6] = Mouse PK of G6893, PO in MCT vehicle; format: in vivo, female C57BL-6 mice; settings: female, C57BL-6, plasma, 30 mg/kg, PO 30 mpk, MCT vehicle pH 2.5, mouse
Procedure: A total of 0.6% w/v Methylcellulose, 0.2% w/v Tween 80 in water (MCT) was prepared by slowly adding Methylcellulose (Methylocel A15 LV; CAS 9004-67-5, Part ID: 64605-500G-F 27.5-31.5% Methoxyl basis, Sigma-Aldrich, St. Louis, MO, USA) in small portions to prevent clumping while stirring into water at 70–80 °C. Once a homogeneous suspension formed, Tween 80 (Polysorbate 80; CAS#9005-65-6 (Polyoxyethylene (20) Sorbitan Monooleate; Tween 80) Part ID: PO138, Spectrum Chemical, New Brunswick, NJ, USA) was added and stirred until fully dissolved. Vehicle was filtered through 0.22 µm PES (Corning REF no. 431098) prior to adding to the compound for dosing. Respective compound was added based on the target concentration to the MCT vehicle and stirred at 35 °C until the power was well-dispersed. Formulations were homogenized through a polytron homogenizer and then sonicated in a water bath sonicator until a homogeneous suspension was achieved.
The pharmacokinetics of G7883 were determined in female CD-1 mice obtained from Charles River Laboratories (Hollister, CA, USA) with a body weight ranging from 20 to 25 g. The pharmacokinetics of G6893 were determined in female C57BL-6 mice (Lingchang/Vital River Laboratory Animal Co., Ltd., Shanghai/Beijing, China) with a body weight ranging from 20 to 35 g. Three mice were given an oral dose of G7883 formulated in 0.6% Methylcellulose, 0.2% Tween80 in water (MCT) at 25 mg/kg and 250 mg/kg with a dosing volume of 10 mL/kg. Food and water were available ad libitum to the animals. Three mice were given an oral dose of G6893 formulated in 0.6% methylcellulose; 0.2% Tween80 in water with pH adjusted to 2.5 at 30 mg/kg and a dose volume of 5 mL/kg. For both compounds, G7883 and G6893, 15 µL of blood was collected serially at 0. 25, 0.5, 1, 2, 4, 6, 8, and 24 h post-dose and diluted in 60 µL of 1.7 mg/mL potassium K2EDTA water. The frozen blood samples were stored at −70 °C or lower until analysis.
All plasma and cell media concentrations of G7883 and G6893 were determined using liquid chromatography–tandem mass spectrometry after protein precipitation with acetonitrile and injection of the supernatant onto the column (Waters ACQUITY UPLC BEH C18 1.7 μm, 2.1 × 50 mm for G7883 and G6893). The aqueous mobile phase was 0.1% formic acid, 2 mM ammonium formate in water/acetonitrile (v:v, 95:5), and the organic mobile phase was 0.1% formic acid, 2 mM ammonium formate in acetonitrile/water (v:v, 95:5). An AB Sciex API 4000 Triple Quad instrument was used for detecting G7883 and G6893 (Figure S2). The electrospray ionization source in both columns was operated in the positive ion and multiple reaction monitoring (MRM) detection modes. The MRM transitions for G7883 and G6893 were m/z 462.2 (Q1) and 253.10 (Q3) and m/z 454.2 (Q1) and 325.9 (Q3), respectively. The dynamic range of both assays was 0.50–50.0 ng/mL, and the total run time was 1.6 min. The lower limit of quantitation of the assay was […], and the dilution quality control concentration was set at 10 ng/mL with acceptance criteria for accuracy and precision of 25%.

[7] = Permeability (physiochemical properties); format: in vitro ADME

Chain of HPK1 (Q92918 whole entry, species assumed): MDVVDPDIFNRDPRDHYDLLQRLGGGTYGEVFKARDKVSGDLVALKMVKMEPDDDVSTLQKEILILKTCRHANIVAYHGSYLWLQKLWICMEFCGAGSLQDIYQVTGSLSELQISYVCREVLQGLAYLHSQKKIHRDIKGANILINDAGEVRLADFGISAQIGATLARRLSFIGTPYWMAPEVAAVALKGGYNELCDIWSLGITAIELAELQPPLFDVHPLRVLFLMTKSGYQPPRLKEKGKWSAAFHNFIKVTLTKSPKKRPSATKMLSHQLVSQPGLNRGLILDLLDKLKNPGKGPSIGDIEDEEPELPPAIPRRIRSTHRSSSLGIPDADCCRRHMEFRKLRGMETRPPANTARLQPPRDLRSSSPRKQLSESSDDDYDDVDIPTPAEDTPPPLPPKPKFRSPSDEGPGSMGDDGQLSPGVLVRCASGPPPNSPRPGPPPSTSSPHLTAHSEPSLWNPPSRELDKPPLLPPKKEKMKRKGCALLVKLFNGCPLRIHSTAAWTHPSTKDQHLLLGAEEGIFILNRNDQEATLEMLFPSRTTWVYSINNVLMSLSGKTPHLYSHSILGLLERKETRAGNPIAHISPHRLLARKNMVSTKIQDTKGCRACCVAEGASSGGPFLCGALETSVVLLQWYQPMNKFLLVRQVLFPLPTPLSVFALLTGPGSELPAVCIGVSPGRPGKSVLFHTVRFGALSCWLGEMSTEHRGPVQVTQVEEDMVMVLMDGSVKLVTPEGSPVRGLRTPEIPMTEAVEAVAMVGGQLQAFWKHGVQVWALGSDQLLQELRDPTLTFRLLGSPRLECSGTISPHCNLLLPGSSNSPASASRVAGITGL

Cc1c(-c2cc3cc(NC(=O)O[C@H]4COC[C@@H]4C)ncc3c(N)c2F)cnc2c1NCCO2 (racemic) [G6893, [rac-(3R,4S)-4-methyltetra hydrofuran-3-yl]N-[8-amino-7-fluoro-6-(8-methyl-2,3-dihydro-1H-pyrido[2,3-b][1,4]oxazin-7-yl)-3-isoquinolyl]carbamate]
plasma concentration relative to target concentration (IC50) [1]: successfully maintained the target concentration profile
pKa [2]: 2.53
IC50 (HPK1): 560 nM
concentration at which a solution was achieved [3]: ≥ 5 mg/mL
solubility (in words) [4]: low solubility
solubility ([4]; water): < 1 µg/mL
logP [5]: 2.69
Cmax ([6]; mean ± SD): 3.8 ± 1.68 µM
Tmax ([6]; mean ± SD): 40 ± 17.3 min
bioavailability ([6]; mean ± SD): 45.5 ± 14%
half-life ([6]; mean ± SD): 184 ± 115 min
AUC(0-t) ([6]; read-out: AUC0 to 8): 19.5 µM·h
permeability (in words) [7]: high permeability
Papp ([7]; not told): 15 ×10⁻⁶ cm/s
